Assay results published in patent publication US10925963B2, “Combination artemisinin and chemiluminescent photodynamic therapy and uses therefor” (Washington University, priority 2015, dated 2021).

Legend:
[1] = system: asynchronous 3D7 parasites; assay: Parasite growth of ALA-treated cultures with daily white-light exposure; type: cell-based, Plasmodium falciparum
Description: Parasite growth was monitored by diluting asynchronous parasites to 0.5% parasitemia and allowing culture expansion with daily or twice daily media changes. […] To assess the light sensitivity of ALA-treated parasites, asynchronous parasites were cultured in 200-500 μM ALA in the absence or presence of 50 μM succinylacetone and subjected to 2-5 minute daily exposures to broad wavelength white light on an overhead projector. Daily parasitemia measurements were plotted as a function of time and fit to an exponential growth equation using Graph Pad Prism 5.0 (Graph Pad Software, Inc., La Jolla, Calif.).
To test the effects of these changes on bulk parasite culture, the present inventors monitored the growth of untreated versus ALA-treated parasites over several days with 2-minute daily exposures to broad-wavelength white light on an overhead projector light box. FIG. 4 depicts growth of asynchronous 3D7 parasites in the presence or absence of 200 μM ALA and 50 μM succinylacetone (SA), with 2-minute exposures to white light on an overhead projector on days 0-2. Parasitemia (percentage of total erythrocytes infected with parasites) as a function of time was fit with an exponential growth equation.

[2] = system: heme biosynthesis enzymes in the erythrocyte cytoplasm; assay: LC-MS/MS detection of 13C-labelled PPIX and CPP from 13C-ALA in erythrocyte lysate supernatants; type: biochemical; conditions: 50 μM succinylacetone; 200 μM 5-[13C4]-ALA; saponin lysate supernatant, overnight 37° C.
Description: Parasites were cultured in 200 μM 5-[^13C4]-ALA for 12-24 hours, harvested by centrifugation, lysed in 0.05% cold saponin, washed in PBS, and extracted with DMSO. Deuteroporphyrin was added as an internal standard, and extracts were analyzed for ^13C-labeled heme, PPIX, and CPPIII using a previously published liquid chromatography-multiple reaction monitoring tandem mass spectrometry assay (Ke, H. et al., J. Biol. Chem. 289, 34827-34837, 2014).
To assess the heme biosynthesis capacity of the erythrocyte cytoplasm, 500 μl packed red blood cells (described previously; Sigala, P. A., et al., J. Biol. Chem. 287, 37793-37807, 2012) were lysed in 20 ml of 0.04% saponin/PBS (0.2 μM filtered) and centrifuged at 25,000×g for 60 minutes to pellet unlysed cells and any organelles. The superficial 15 ml of the lysate supernatant was removed and 0.2 μM filtered, supplemented with 200 μM 5-[^13C4]-ALA in the absence or presence of 50 μM succinylacetone, incubated overnight at 37° C., and analyzed by tandem mass spectrometry as described above.
In these investigations, red porphyrin fluorescence in ALA-treated intraerythrocytic parasites was not limited to the parasitophorous vacuole but was detectable throughout the erythrocyte cytoplasm (FIG. 3A), as expected for host enzyme activity in this compartment and production of PPIX. […]

[3] = system: 3D7 (drug sensitive) parasites; assay: Chemiluminescence-based photodynamic therapy (CL-PDT) parasite growth; type: cell-based, Plasmodium falciparum; conditions: 50 μM succinylacetone
Description: Parasitemia was measured daily as indicated above.
The present inventors tested whether intraerythrocytic parasites might be uniquely susceptible to chemiluminescence-based photodynamic therapy (CL-PDT) (FIG. 9A). Artemisinin and its derivatives are current frontline drugs used for treatment of malaria, usually in combination with a partner drug. To test the efficacy of an artemisinin CL-PDT strategy for treatment of blood-stage malaria, we incubated intraerythrocytic parasites in 50-100 μM ALA with or without luminol and sub-therapeutic doses (≤10% of EC50) of dihyroartemisinin (DHA), with twice-daily media changes.

uninfected erythrocytes = assay: Fluorescence microscopy of uninfected erythrocytes incubated in ALA; type: cell-based; conditions: 500 μM ALA
Description: (§1) Images of live or fixed parasites were acquired on an Axio Imager.M1 epifluorescence microscope (Carl Zeiss Microimaging, Inc.) equipped with a Hamamatsu ORCA-ER digital CCD camera and running Axiovision 4.8 software, as described previously (Sigala, P. A., et al., J. Biol. Chem. 287, 37793-37807, 2012). Live parasite nuclei were stained with 5 μM Hoechst 33342 added immediately prior to image acquisition. For photodynamic imaging studies, parasites were cultured in 200-500 μM ALA in the absence or presence of 50 μM succinylacetone for 6-12 hours prior to visualization. Hemozoin movement in parasite digestive vacuoles were imaged by acquiring 10-20 sequential frames at 1 second intervals on the bright-field channel. Images were cropped and superimposed in Adobe Photoshop and exported as movie files with a 0.1 second frame delay. Immunofluorescence images were acquired by fixing and staining parasites as previously described (Tonkin, C. J., et al., Mol. Biochem. Parasitol 137, 13-21, 2004; Ponpuak, M., et al., Mol. Microbiol. 63, 314-334, 2007). Electron microscopy images were obtained as previously described (Beck., J. R., et al., Nature 511, 592-595, 2014). […]
FIG. 7A depicts Bright field and fluorescence (Zeiss filter set 43 HE) images of uninfected erythrocytes incubated in 500 μM ALA before or after electroporation.

[4] = system: Plasmodium-infected erythrocytes; assay: Fluorescence microscopy of PPIX accumulation in parasite-infected erythrocytes; type: cell-based, Plasmodium falciparum; conditions: parasites grown in 200 μM ALA; epifluorescence microscope
Description: as §1, with “delay.” for “delay. Immunofluorescence images were acquired by fixing and staining parasites as previously described (Tonkin, C. J., et al., Mol. Biochem. Parasitol 137, 13-21, 2004; Ponpuak, M., et al., Mol. Microbiol. 63, 314-334, 2007). Electron microscopy images were obtained as previously described (Beck., J. R., et al., Nature 511, 592-595, 2014).”
The present inventors investigated whether ALA treatment could serve as a probe of heme biosynthesis activity in Plasmodium-infected erythrocytes by enabling direct visualization of PPIX production and the cellular consequences of light activation. Untreated parasites imaged on an epifluorescence microscope display only background auto-fluorescence from hemozoin crystals in the parasite digestive vacuole (FIG. 2). […]

[5] = system: hemozoin crystals in the parasite digestive vacuole; assay: Hemozoin dynamics in the digestive vacuole after light exposure; type: cell-based, Plasmodium falciparum; conditions: 200 μM ALA-treated parasites; fluorescence image acquisition overlapping PPIX excitation
Description: as §1, with “delay.” for “delay. Immunofluorescence images were acquired by fixing and staining parasites as previously described (Tonkin, C. J., et al., Mol. Biochem. Parasitol 137, 13-21, 2004; Ponpuak, M., et al., Mol. Microbiol. 63, 314-334, 2007). Electron microscopy images were obtained as previously described (Beck., J. R., et al., Nature 511, 592-595, 2014).”
The cytotoxic effects of light-activating PPIX were readily apparent by monitoring the motion of hemozoin crystals that dynamically tumble within the digestive vacuole of individual parasites. […] FIG. 3A depicts bright field and fluorescence microscopy images of untreated and 200 μM ALA-treated parasites. Fluorescence images were acquired with a Zeiss filter set 43 HE (excitation 537-562 nm, emission 570-640 nm). […]

SMILES	rescue of photosensitivity of parasite growth in ALA ([1]; 50 μM succinylacetone with 200 μM ALA, 2-minute light exposures)	formation of 13C-labelled PPIX and coproporphyrin III from 13C-ALA [2]	rescue of cytotoxicity of the ALA/luminol/DHA combination [3]	growth of cultures in the presence of light ([1]; 200 μM ALA, 2-minute daily exposures to white light on days 0-2)	blood smear examination of light-exposed cultures ([1]; ALA-treated cultures, 2-minute daily white light)	photosensitivity of growth in ALA after apicoplast disruption ([1]; IPP/doxycycline-treated 3D7 parasites, 200 μM ALA, 2-minute light exposures)	photosensitivity of clonal growth in ALA ([1]; ΔPBGD and ΔCPO 3D7 parasite lines, 200 μM ALA, 2-minute light exposures days 0-2)	porphyrin fluorescence of uninfected erythrocytes (uninfected erythrocytes; after electroporation)	porphyrin fluorescence of uninfected erythrocytes (uninfected erythrocytes; without electroporation)	porphyrin (PPIX) fluorescence of infected erythrocytes [4]	hemozoin dynamics after light [5]
CC(=O)CC(=O)CCC(=O)O [succinylacetone]	fully rescued	fully blocked	could be rescued	–	–	–	–	–	–	–	–
NCC(=O)CCC(=O)O [ALA, 5-aminolevulinic acid]	–	–	–	strongly attenuated by light	predominantly contained pyknotic parasites	remained fully photosensitive	remained fully photosensitive	robust intracellular porphyrin fluorescence	no detectable porphyrin fluorescence	bright red fluorescence	rapidly ablated by light
